We go through 1 substance from US11913030B2, “Method of preparing mimicking angiogenic co-spheroids and application thereof” (NATIONAL TAIWAN UNIVERSITY, priority 2018, dated 2024).

The test system of assay [1] is ECs in NSC/EC co-spheroids. The experiment in a line: qRT-PCR of EC activity and angiogenic markers in co-spheroids encapsulated in gelatin-based hydrogel. It counts as cell-based. Conditions: FGF2 1 μg/mL in gelatin-based hydrogel, 3 days. Here is the method: Total RNA from the adherent cells or cell spheroids formed on CS-HA substrates and embedded in the hydrogels was extracted by Trizol reagent (Invitrogen) as the manufacturer's instructions. One microgram of total RNA was further subjected to the cDNA synthesis. cDNA pool was generated by RevertAid First Strand cDNA Synthesis Kit (MBI Fermentas, Canada) using the standard protocol. qRT-PCR was performed by StepOnePlus thermos cycler (Applied Biosystems) using the DyNAmo Flash SYBR Green qPCR Kit (Finnzymes Oy, Finland). […]
To investigate whether EC activity in NSC/EC co-spheroids was promoted after encapsulation in gelatin-based hydrogel, the co-spheroids that were cultured on CS-HA substrates for 2 days were collected, and then encapsulated by gelatin-based hydrogel. After encapsulation for 3 days, the expression of several markers representative of mitogenic and angiogenic activities of ECs was determined.
On the other hand, a relative long-term culture of co-spheroids in the gelatin-based hydrogel containing FGF2 for 12 days was also performed, and the activity of ECs was analyzed by gene expression.
To further verify the angiogenic potential of ECs in the co-spheroids, more angiogenic markers for ECs including angiopoietin-1, angiopoietin-2, and tyrosine kinase 1 (Flt-1) were analyzed.
In general terms: Real-time PCR tracks product formation cycle by cycle.

Assay [2] has as its system NSC/EC co-spheroids. Kind of assay: Morphology and relative size of co-spheroids encapsulated in hydrogels. It counts as cell-based. Conditions: FGF2 1 μg/mL. As to the method:
To observe the morphological alteration of NSC/EC co-spheroids embedded in the hydrogels, the cells were labeled with fluorescent dyes before seeding on CS-HA substrates. After gelation, the culture medium was added and changed every 2 days. The morphologies of cell spheroids formed on CS/CS-HA substrates and encapsulated in the various hydrogels were observed by a fluorescence microscope (Leica, DMIRB), and the relative sizes of cell spheroids were determined by ImageJ software (National Institutes of Health, USA).
To support the long-term growth of NSC/EC co-spheroids, the co-spheroids derived from the CS-HA substrates were respectively embedded in the CS-based and gelatin-based hydrogels. […] On the other hand, the cell growth rates in the spheroids were evaluated by the spheroid size. Cells in EC mono-spheroids grew faster than those in NSC mono-spheroids, and the growth rate in NSC/EC co-spheroids was the slowest in both hydrogels, though the difference among each group was not statistically significant.
In some embodiments, the fibroblast growth factor 2 (FGF2) protein was used to promote the growth of co-spheroids in hydrogels. In order to evenly add FGF2 to hydrogels, FGF2 (PeproTech, USA) was added to the hydrogel solution and mixed before the gelation. The final concentration of the FGF2 protein in hydrogels was 1 μg/mL. […]

Regarding fibroblast growth factor 2 [FGF2], the “expression of KDR, VEGF, ITGb1, VE-cadherin upon addition of FGF2” value in assay [1] is reported as “did not seem to be apparently affected”. Moreover, the “growth rates of the co-spheroids after FGF2 induction” value in assay [2] (in CS-based hydrogel) is listed as “not promoted”. Further, the “growth of co-spheroids after introduction of FGF2” value in assay [2] (in gelatin-based hydrogel, from 6 days after encapsulation) is “lightly enhanced”.
